Test results reported in patent US20050020692A1, “Treatment of heaves” (priority 2003, published 2005).
Structures can show the parent of a compound that is named as a salt. Where two headings read alike, the source gives them in different places.

What was measured:
[1] = tested on: isolated guinea pig tracheas; experiment: Inhibition of airway smooth muscle contractions, isolated guinea pig tracheas; conditions: Cavia porcellus, read-out: pD2 (converted)
Description: The following study was performed in vitro, using isolated guinea pig tracheas. The airway smooth muscle tissues were contracted by carbachol or ovalbumin or histamine. […] Results: pD2 Values of the Enantiomers of Albuterol

[2] = tested on: equine bronchial smooth muscle; experiment: Carbachol-induced contractions of equine bronchial smooth muscle (hyperreactivity); parameters: species or system horse; conditions: 37° C.
Description: In this study, segments of equine bronchial smooth muscle are mounted on special holders and immersed in a physiologic solution containing glucose and aerated with 95% O2 and 5% CO2 at 37° C. Isometric tension is measured with force transducers and registered electronically. The effects of R-, RS- and S-albuterol on carbachol-induced contractions are studied.

[3] = tested on: isolated human leukocytes (buffy coat); experiment: A23187-stimulated histamine release from isolated human leukocytes; format: cell-based; conditions: for inhibition of release of the marker inflammatory mediator histamine: A23187 5 μM, 20 min/37° C., 4×10^−4 M to 10^−6 M
Description: In this study, histamine was the marker compound for inflammatory mediators that are released from pro-inflammatory cells. The inhibition of stimulated histamine release from isolated human leukocytes (buffy coat) by test articles was studied. The method is a modification of the methodology described by Nolte et al. (1988). Leukocytes were obtained from healthy volunteers and inflammatory mediator release was induced by incubation (20 min/37° C.) with the Ca-ionophore A23187 (5 μM) in the presence or absence of a test article. Histamine was analyzed by enzyme-immuno assays (E.I.A.), using commercially available kits and a microplate reader (MRX, Dynatech). The test articles were tested in each assay at five concentrations ranging from 4×10^−4 M to 10^−6 M, in duplicate. In the same experiment, a reference compound was tested in duplicate at eight concentrations to obtain an inhibition curve to validate the experiment (not shown here). Results: […]

[4] = tested on: Antigen-specific T-cell lines; experiment: Antigen-specific T-cell lines: proliferation, apoptosis, cytokine secretion; format: cell-based, human
Description: Parallel lines were generated in the presence of propranolol. Cells were evaluated for proliferation, apoptosis, and cytokine secretion.

pro-inflammatory cells = conditions: cited from earlier work
adrenergic β-2 receptors = experiment: cAMP production in human PC3 cells; conditions: PC-3, read-out: EC50 for cAMP production
[5] = format: physicochemical
Description: The chemical and optical purities of all batches used for biological studies have been >98%. […] No polymorphs have been detected.

[6] = tested on: M-form phenolsulfotransferase (M-PST); experiment: Sulfotransferase activity in horse liver cytosol / intestinal mucosa; format: in vitro ADME
Description: Method: The livers from recently slaughtered horses are homogenized and the cytosol is prepared by differential centrifugation. The protein concentration of the cytosolic preparation is determined by the Lowry method (Lowry O. H. et al.: Protein measurement with the foline phenol reagent. J. Biol. Chem. 1951, 193: 265-275). […] Cytosol from the livers is incubated at 15 °C. After removal of unmetabolized beta-2 agonist with ethyl acetate, free drug is released from the conjugate using sulfatase. The concentrations of beta-2 agonist enantiomers are analyzed by chiral HPLC assay.
Results from tests with intestinal mucosa yielded the same surprising results.

[7] = horse
[8] = contractile stimulus Carbachol (10^-6 M)
[9] = contractile stimulus Histamine (10^-5 M)
[10] = contractile stimulus Ovalbumin (10-5 g/ml)

Work on `CC(C)(C)NC[C@@H](O)c1ccc(O)c(CO)c1` [S(+)-albuterol] yielded an EC50 [1, 8] of 79400 nM, an EC50 [1, 9] of 5010 nM and an EC50 [1, 10] of 31600 nM. The “effect on equine bronchial smooth muscle” value [2] was “causing bronchial hyperreactivity”, the “inhibition of release of the marker inflammatory mediator histamine” value [3] was “Neither R(−)-albuterol nor S(+)-albuterol inhibited the release” and the “increase of release of histamine from leukocytes” value ([3]; at concentrations of 10 μM and higher) was “significantly and dose-dependently increased the release”. For the same molecule, the “influence on T-cell proliferation” value ([4]; S(+)-albuterol alone) was “No influence was observed”, the “facilitation of release of inflammatory mediators” value (pro-inflammatory cells) was “facilitating the release” and the EC50 (adrenergic β-2 receptors) was 14000 nM.
For `CC(C)(C)NCC(O)c1ccc(O)c(CO)c1` (racemic) [RS-albuterol], the influence on proliferation [4] was “minimal influences”, the cytokine production ([4]; 10(−8) mol/L each isomer) was “no influence” and the EC50 (adrenergic β-2 receptors) was 207 nM.
With `CC(C)(C)NC[C@H](O)c1ccc(O)c(CO)c1.CC(C)(C)NC[C@H](O)c1ccc(O)c(CO)c1.O=S(=O)(O)O` [R(−)-albuterol sulfate] the solubility in water [5] was “readily soluble”.
`CC(C)(C)NC[C@H](O)c1ccc(O)c(CO)c1` [R(−)-albuterol, (R)-[…]^1-[[(1,1-dimethylethyl)amino]methyl]-4-hydroxy-1,3-benzene-dimethanol, sulfate (2:1) (salt)] showed an EC50 [1, 8] of 79.4 nM, an EC50 [1, 9] of 20 nM and an EC50 [1, 10] of 5.01 nM. The “effect on equine bronchial smooth muscle” value [2] was “causing bronchorelaxation”, the “inhibition of release of the marker inflammatory mediator histamine” value [3] was “Neither R(−)-albuterol nor S(+)-albuterol inhibited the release” and the T-cell proliferation ([4]; 10(−7) mol/L, % of control) was 61.1%±9.0%. For the same molecule, the “IL-2 and IFN-gamma production” value ([4]; 10(−8) mol/L) was “inhibited”, the T-cell proliferation ([4]; 10(−8) mol/L) was 77.0%±9.7% and the “intestinal or hepatic metabolism by M-form phenolsulfotransferase” value [6] was “not to undergo intestinal or hepatic metabolism”. For the same molecule, the “inversion to S-albuterol” value [7] was “no such inversion takes place” and the EC50 (adrenergic β-2 receptors) was 100 nM.
For `CC(C)(C)NC[C@H](O)c1ccc(O)c(CO)c1.Cl` [R(−)-albuterol hydrochloride], the solubility in water [5] was “readily soluble”.
